Test results reported in ChEMBL document CHEMBL1142757, “Synthesis and biological evaluation of novel angularly fused polycyclic coumarins” (2005).
The source made the active and inactive calls. The calls are words filed in the database; no cut-off is given here.

Key:
Rattus norvegicus [1] = experiment: Antiinflammatory activity against Albino rat dosed at 400 mg/kg (3h); type: functional
Rattus norvegicus [2] = experiment: Antiinflammatory activity against Albino rat dosed at 200 mg/kg (3h); type: functional
Rattus norvegicus [3] = experiment: Antiinflammatory activity against Albino rat dosed at 300 mg/kg (3h); type: functional
Mus musculus [4] = experiment: Analgesic activity against Swiss albino mice dosed at 300 mg/kg and activity calculated as percentage maximum possible effect (% MPE); type: functional
Mus musculus [5] = experiment: Analgesic activity against Swiss albino mice dosed at 200 mg/kg and activity calculated as percentage maximum possible effect (% MPE); type: functional
Mus musculus [6] = experiment: Analgesic activity against Swiss albino mice dosed at 400 mg/kg and activity calculated as percentage maximum possible effect (% MPE); type: functional
Mus musculus [7] = experiment: Analgesic activity against Swiss albino mice dosed at 100 mg/kg and activity calculated as percentage maximum possible effect (% MPE); No activity; type: functional, organism-based; set-up: dose 100 mg/kg
Rattus norvegicus [8] = experiment: (§1) Antiinflammatory activity against Albino rat dosed at 100 mg/kg (3h); type: functional
Mus musculus [9] = experiment: Analgesic activity against Swiss albino mice dosed at and activity calculated as percentage maximum possible effect (% MPE); type: functional
Rattus norvegicus [10] = experiment: as §1; type: functional, organism-based; set-up: dose 100 mg/kg
Rattus norvegicus [11] = experiment: Antiinflammatory activity against Albino rat dosed at 400 mg/kg; type: functional
Rattus norvegicus [12] = experiment: Antiinflammatory activity against Albino rat dosed at 200 mg/kg; type: functional
Rattus norvegicus [13] = experiment: Antiinflammatory activity against Albino rat dosed at 300 mg/kg; type: functional

Compound	inhibition in vivo at 400 mg/kg (Rattus norvegicus [1])	inhibition in vivo at 200 mg/kg (Rattus norvegicus [2])	inhibition in vivo at 300 mg/kg (Rattus norvegicus [3])	MPE (Mus musculus [4])	MPE (Mus musculus [5])	MPE (Mus musculus [6])	MPE (Mus musculus [7])	inhibition in vivo at 100 mg/kg (Rattus norvegicus [8])	MPE (Mus musculus [9])	inhibition (Rattus norvegicus [10])	inhibition in vivo at 400 mg/kg (Rattus norvegicus [11])	inhibition in vivo at 200 mg/kg (Rattus norvegicus [12])	inhibition in vivo at 300 mg/kg (Rattus norvegicus [13])
CCc1nc2c3ccccc3oc2c2c1c(=O)oc1cc(C)ccc12	46.5%	35.4%	41.7%	4.9%	2.4%	7.1%	–	–	–	–	–	–	–
O=C(O)Cc1ccccc1Nc1c(Cl)cccc1Cl [DICLOFENAC SODIUM]	–	–	–	–	–	–	inactive	94.5%	–	–	–	–	–
O=c1oc2cc(Cl)ccc2c2c1cnc1c3ccccc3oc12	29.4%	19.2%	26.3%	3.4%	1.8%	6.8%	–	–	–	–	–	–	–
Cc1ccc2c(c1)oc(=O)c1c(C)nc3c4ccccc4oc3c12	97%	80.7%	88.7%	24.9%	22.9%	18.3%	–	–	–	–	–	–	–
Cc1ccc2oc(=O)c3cnc4c5ccccc5oc4c3c2c1	67.2%	89%	96.3%	32.9%	20.9%	20.9%	–	–	–	–	–	–	–
CC(=O)Oc1ccccc1C(=O)O [ASPIRIN]	–	–	–	–	–	–	–	–	74.9%	inactive	–	–	–
Cc1ccc2c(c1)oc(=O)c1cnc3c4ccccc4oc3c12	–	–	–	22.9%	1.3%	10.8%	–	–	–	–	18.3%	24.6%	31.4%
Cc1nc2c3ccccc3oc2c2c1c(=O)oc1cc(Cl)ccc12	27.4%	21.6%	25.9%	7.3%	4.7%	9.2%	–	–	–	–	–	–	–
CCc1nc2c3ccccc3oc2c2c1c(=O)oc1cc(OC)ccc12	67.2%	35.7%	78.1%	24.4%	24.3%	39.5%	–	–	–	–	–	–	–
